From ChEMBL document CHEMBL4304792, “Cinnamonitrile Adjuvants Restore Susceptibility to β-Lactams against Methicillin-Resistant Staphylococcus aureus” (ACS Med Chem Lett, 2019) come the findings set out here.

For experiment [1], the system named is Staphylococcus aureus. The experiment is described as follows: Potentiation of oxacillin induced antibacterial activity against Staphylococcus aureus NRS70 assessed as oxacillin MIC at 20 uM measured after 16 to 20 hrs in presence of 2% NaCl by microdilution broth method (reference value: 64 mg/L). It counts as functional. (In broth dilution the organism is exposed to a series of concentrations in liquid medium.)

Experiment [2] relates to Staphylococcus aureus. Put plainly: Antibacterial activity against Staphylococcus aureus NRS70 measured after 16 to 20 hrs in absence of 2% NaCl by microdilution broth method.

In brackets after ≈: the same amount, converted by molar mass. Some results are limits rather than exact numbers.

In the case of `CS(=O)(=O)/C(C#N)=C/c1cc(Cc2ccc(SC(F)(F)F)cc2)ccc1F`, the figures for the MIC in the experiment with Staphylococcus aureus [1] and in the experiment with Staphylococcus aureus [2] were 64 µg/mL and ≥ 64 µg/mL, respectively.

Take `COc1ccc(C=C(C#N)C#N)cc1Oc1ccc(Cl)c(Cl)c1`: the minimum inhibitory concentration (MIC) (in general, the smallest concentration in the dilution series that meets the test's criterion for growth inhibition) in the experiment with Staphylococcus aureus [1] is 64 µg/mL; against Staphylococcus aureus [2] it was ≥ 64 µg/mL.

Take `CC(=C(C#N)C#N)c1cccc(Cc2ccc(Cl)c(Cl)c2)c1`: the MIC in the experiment with Staphylococcus aureus [1] was 64 µg/mL; against Staphylococcus aureus [2], ≥ 64 µg/mL.

As to `CS(=O)(=O)/C(C#N)=C/c1cc(Cc2ccc(F)c(C(F)(F)F)c2)ccc1F`, the MIC with Staphylococcus aureus [1] is 64 µg/mL; against Staphylococcus aureus [2] it was ≥ 64 µg/mL.

As to `N#CC(C#N)=Cc1cccc(Oc2cc(Cl)cc(Cl)c2)c1`, the values for the MIC in the experiment with Staphylococcus aureus [1] and in the experiment with Staphylococcus aureus [2] were 64 µg/mL and 16 µg/mL (≈ 50.8 µM), respectively.

As to `CS(=O)(=O)/C(C#N)=C/c1cccc(-c2ccc(Cl)c(Cl)c2)n1`, the MIC was determined as 16 µg/mL in the experiment on Staphylococcus aureus [1] and 32 µg/mL (≈ 90.6 µM) against Staphylococcus aureus [2].

Turning to `N#C/C(=C\c1cccc(Oc2ccc(Cl)c(Cl)c2)c1)c1nc2ccccc2s1`, the MIC in the experiment on Staphylococcus aureus [1] is 64 µg/mL; in the experiment on Staphylococcus aureus [2] it was ≥ 64 µg/mL.

Regarding `N#CC(C#N)=Cc1cccc(Cc2ccc(F)c(Cl)c2)c1`, the minimum inhibitory concentration (MIC) with Staphylococcus aureus [1] is 64 µg/mL; against Staphylococcus aureus [2] it was ≥ 64 µg/mL.

`CS(=O)(=O)/C(C#N)=C/c1cc(Cc2ccc3c(c2)OCO3)ccc1OC(F)(F)F`: the MIC was 64 µg/mL in the experiment with Staphylococcus aureus [1] and 32 µg/mL (≈ 75.2 µM) against Staphylococcus aureus [2].

`N#CC(C#N)=Cc1cccc(Oc2ccccc2)c1`: the MIC with Staphylococcus aureus [1] came out at 64 µg/mL; in the experiment on Staphylococcus aureus [2], 32 µg/mL (≈ 130 µM).

With `COc1ccc(Cc2ccc(Cl)c(Cl)c2)cc1/C=C(\C#N)S(C)(=O)=O`, the minimum inhibitory concentration (MIC) with Staphylococcus aureus [1] came to 4 µg/mL; in the experiment with Staphylococcus aureus [2] it was 32 µg/mL (≈ 80.7 µM).

Turning to `COc1ccc(Cc2ccc(Cl)c(Cl)c2)cc1C=C(C#N)C#N`, the results for the MIC in the experiment on Staphylococcus aureus [1] and against Staphylococcus aureus [2] were 4 µg/mL and ≥ 64 µg/mL, respectively.

For `N#CC(C#N)=Cc1cccc(Cc2cc(F)c(F)cc2F)c1`, the MIC in the experiment on Staphylococcus aureus [1] is 64 µg/mL; in the experiment on Staphylococcus aureus [2] it was ≥ 64 µg/mL.

Turning to `Cc1ccc(Oc2cccc(C=C(C#N)C#N)c2)cc1`, the MIC in the experiment on Staphylococcus aureus [1] was 64 µg/mL; in the experiment with Staphylococcus aureus [2], ≥ 64 µg/mL.

With `N#CC(C#N)=Cc1cccc(Oc2ccc(F)cc2)c1`, the MIC is 64 µg/mL with Staphylococcus aureus [1] and ≥ 64 µg/mL against Staphylococcus aureus [2].

In the case of `N#CC(C#N)=Cc1cccc(Sc2ccc(Cl)c(Cl)c2)c1`, the values for the MIC in the experiment on Staphylococcus aureus [1] and against Staphylococcus aureus [2] were 64 µg/mL and ≥ 64 µg/mL, respectively.

For `N#C/C(=C\c1cccc(Oc2ccc(Cl)c(Cl)c2)c1)c1ccccn1`, the MIC in the experiment with Staphylococcus aureus [1] was 64 µg/mL; in the experiment with Staphylococcus aureus [2], ≥ 64 µg/mL.

In the case of `CS(=O)(=O)/C(C#N)=C/c1cc(-c2ccnc3ccccc23)ccc1F`, the results for the MIC in the experiment with Staphylococcus aureus [1] and in the experiment with Staphylococcus aureus [2] were 64 µg/mL and ≥ 64 µg/mL, respectively.

Regarding `CS(=O)(=O)/C(C#N)=C/c1cc(Cc2ccc(F)c(F)c2)ccc1F`, the MIC in the experiment with Staphylococcus aureus [1] is 64 µg/mL; against Staphylococcus aureus [2] it was ≥ 64 µg/mL.

With `N#CC(C#N)=Cc1ccc(Oc2ccc(Cl)cc2)cc1`, the values for the MIC in the experiment with Staphylococcus aureus [1] and in the experiment on Staphylococcus aureus [2] were 64 µg/mL and 32 µg/mL (≈ 114 µM), respectively.

As to `Cc1ccc(C(=O)/C(C#N)=C/c2cccc(Oc3ccc(Cl)c(Cl)c3)c2)cc1`, the values for the minimal inhibitory concentration (MIC) in the experiment with Staphylococcus aureus [1] and in the experiment on Staphylococcus aureus [2] were 64 µg/mL and ≥ 64 µg/mL, respectively.

For `N#CC(C#N)=Cc1cccc(Cc2ccc(Cl)c(F)c2)c1`, the MIC with Staphylococcus aureus [1] is 64 µg/mL; against Staphylococcus aureus [2] it was ≥ 64 µg/mL.

Regarding `CS(=O)(=O)/C(C#N)=C/c1cc(Cc2ccc(C(F)(F)F)c(F)c2)ccc1F`, the figures for the MIC in the experiment on Staphylococcus aureus [1] and against Staphylococcus aureus [2] were 64 µg/mL and 32 µg/mL (≈ 79.7 µM), respectively.

Consider `N#C/C(=C\c1cccc(Oc2ccc(Cl)c(Cl)c2)c1)c1ccncc1`, for which the MIC is 64 µg/mL in the experiment on Staphylococcus aureus [1] and ≥ 64 µg/mL with Staphylococcus aureus [2].

As to `N#CC(C#N)=Cc1cccc(Cc2cccc(Cl)c2)c1`, the MIC was 64 µg/mL in the experiment on Staphylococcus aureus [1] and ≥ 64 µg/mL in the experiment on Staphylococcus aureus [2].

Regarding `CS(=O)(=O)/C(C#N)=C/c1cc(Cc2ccc(Cl)c(Cl)c2)ccc1N1CCOCC1`, the results for the MIC with Staphylococcus aureus [1] and in the experiment with Staphylococcus aureus [2] were 16 µg/mL and ≥ 64 µg/mL, respectively.

As to `CS(=O)(=O)/C(C#N)=C/c1cc(-c2cnc3ccccc3n2)ccc1F`, the MIC in the experiment on Staphylococcus aureus [1] was 64 µg/mL; in the experiment with Staphylococcus aureus [2], ≥ 64 µg/mL.

For the molecule `N#CC(C#N)=Cc1cccc(Oc2ccc(Cl)c(Cl)c2)c1`, the results for the MIC in the experiment with Staphylococcus aureus [1] and against Staphylococcus aureus [2] were 64 µg/mL and 32 µg/mL (≈ 102 µM), respectively.

As for `N#CC(C#N)=Cc1cccc(Oc2cccc(C(F)(F)F)c2)c1`, the MIC with Staphylococcus aureus [1] was found to be 64 µg/mL; against Staphylococcus aureus [2] it was 32 µg/mL (≈ 102 µM).

Regarding `COc1c(/C=C(\C#N)S(C)(=O)=O)cccc1Cc1ccc(Cl)c(Cl)c1`, the MIC is 8 µg/mL in the experiment on Staphylococcus aureus [1] and 32 µg/mL (≈ 80.7 µM) in the experiment with Staphylococcus aureus [2].

On to `CS(=O)(=O)/C(C#N)=C/c1cc(Cc2ccc(OC(F)(F)F)cc2)ccc1F`, for which the MIC with Staphylococcus aureus [1] was 64 µg/mL; against Staphylococcus aureus [2], ≥ 64 µg/mL.

Regarding `CCOc1ccc(Cc2ccc(Cl)c(Cl)c2)cc1/C=C(\C#N)S(C)(=O)=O`, the MIC was 16 µg/mL in the experiment with Staphylococcus aureus [1] and ≥ 64 µg/mL in the experiment on Staphylococcus aureus [2].

For `N#CC(C#N)=Cc1cccc(Oc2ncc(Cl)c(Cl)n2)c1`, the values for the MIC in the experiment on Staphylococcus aureus [1] and in the experiment on Staphylococcus aureus [2] were 64 µg/mL and ≥ 64 µg/mL, respectively.

For the molecule `N#CC(C#N)=Cc1cccc(Cc2ccc(Cl)c(Cl)c2)c1F`, the figures for the MIC with Staphylococcus aureus [1] and in the experiment with Staphylococcus aureus [2] were 2 µg/mL and 8 µg/mL (≈ 24.2 µM), respectively.

Regarding `N#C/C(=C\c1cccc(Oc2ccc(Cl)c(Cl)c2)c1)C(=O)O`, the MIC in the experiment with Staphylococcus aureus [1] was 64 µg/mL; with Staphylococcus aureus [2] it was ≥ 64 µg/mL.

As for `CS(=O)(=O)/C(C#N)=C/c1cccc(Oc2ccc(Cl)c(Cl)c2)c1`, the MIC with Staphylococcus aureus [1] is 64 µg/mL; in the experiment on Staphylococcus aureus [2], 16 µg/mL (≈ 43.4 µM).

For `N#CC(C#N)=Cc1cccc(S(=O)(=O)c2ccc(Cl)c(Cl)c2)c1`, the MIC was found to be 64 µg/mL in the experiment with Staphylococcus aureus [1] and 16 µg/mL (≈ 44 µM) in the experiment with Staphylococcus aureus [2].

Consider `N#CC(C#N)=Cc1cccc(C(=O)Nc2ccc(Cl)c(Cl)c2)c1`, for which the MIC with Staphylococcus aureus [1] was 16 µg/mL; against Staphylococcus aureus [2], ≥ 64 µg/mL.

Consider `N#C/C(=C\c1cc(Cc2ccc(Cl)c(Cl)c2)ccc1F)C(=O)C1CC1`, for which the values for the MIC in the experiment with Staphylococcus aureus [1] and with Staphylococcus aureus [2] were 1 µg/mL and ≥ 64 µg/mL, respectively.

For the molecule `COc1ccc(Cc2ccc(Cl)c(Cl)c2)c(OC)c1/C=C(\C#N)S(C)(=O)=O`, the minimum inhibitory concentration (MIC) in the experiment on Staphylococcus aureus [1] turned out to be 64 µg/mL; against Staphylococcus aureus [2] it was 16 µg/mL (≈ 37.5 µM).

`CS(=O)(=O)/C(C#N)=C/c1cc(Cc2cccc(OC(F)(F)F)c2)ccc1F`: the MIC is 64 µg/mL with Staphylococcus aureus [1] and ≥ 64 µg/mL with Staphylococcus aureus [2].

For `N#C/C(=C\c1cc(-c2ccc(Cl)c(Cl)c2)ccc1F)S(=O)(=O)c1ccccn1`, the MIC in the experiment with Staphylococcus aureus [1] is 16 µg/mL; against Staphylococcus aureus [2] it was 32 µg/mL (≈ 73.9 µM).

As to `Cc1ccc(S(=O)(=O)Nc2cccc(C=C(C#N)C#N)c2)cc1`, the MIC in the experiment with Staphylococcus aureus [1] is 64 µg/mL; in the experiment on Staphylococcus aureus [2] it was ≥ 64 µg/mL.

Consider `N#C/C(=C\c1cccc(Oc2ccc(Cl)c(Cl)c2)c1)C(N)=O`, for which the values for the MIC with Staphylococcus aureus [1] and with Staphylococcus aureus [2] were 64 µg/mL and 8 µg/mL (≈ 24 µM), respectively.

In the case of `CS(=O)(=O)/C(C#N)=C/c1cc(Cc2ccc(C(F)(F)F)cc2)ccc1F`, the MIC in the experiment with Staphylococcus aureus [1] came out at 64 µg/mL; in the experiment with Staphylococcus aureus [2], 32 µg/mL (≈ 83.5 µM).

With `CC(C)NC(=O)c1ccc(Cc2ccc(F)c(/C=C(\C#N)S(C)(=O)=O)c2)cc1`, the MIC in the experiment with Staphylococcus aureus [1] was 64 µg/mL; in the experiment on Staphylococcus aureus [2], ≥ 64 µg/mL.

In the case of `N#CC(C#N)=Cc1cccc(Oc2ccc(Cl)nn2)c1`, the figures for the MIC in the experiment with Staphylococcus aureus [1] and against Staphylococcus aureus [2] were 64 µg/mL and ≥ 64 µg/mL, respectively.

For `COc1ccc(Cc2ccc(OC(F)(F)F)c(/C=C(\C#N)S(C)(=O)=O)c2)cc1OC`, the MIC in the experiment with Staphylococcus aureus [1] is 64 µg/mL; with Staphylococcus aureus [2] it was ≥ 64 µg/mL.

As for `COc1ccc(Oc2cccc(C=C(C#N)C#N)c2)cc1`, the MIC with Staphylococcus aureus [1] was 64 µg/mL; in the experiment with Staphylococcus aureus [2], ≥ 64 µg/mL.

Turning to `CS(=O)(=O)/C(C#N)=C/c1cc(Cc2cccc(C(F)(F)F)c2)ccc1F`, the values for the minimum inhibitory concentration (MIC) in the experiment with Staphylococcus aureus [1] and against Staphylococcus aureus [2] were 64 µg/mL and ≥ 64 µg/mL, respectively.

As to `CS(=O)(=O)/C(C#N)=C/c1cc(-c2ccc3ccccc3n2)ccc1F`, the values for the minimum inhibitory concentration (MIC) in the experiment with Staphylococcus aureus [1] and against Staphylococcus aureus [2] were 64 µg/mL and ≥ 64 µg/mL, respectively.

For `CS(=O)(=O)/C(C#N)=C/c1cccc(Cc2ccc(Cl)c(Cl)c2)c1F`, the MIC was 2 µg/mL in the experiment with Staphylococcus aureus [1] and 8 µg/mL (≈ 20.8 µM) against Staphylococcus aureus [2].

Take `N#CC(C#N)=Cc1cccc(Cc2ccc(Cl)c(Cl)c2)c1`: the MIC with Staphylococcus aureus [1] is 64 µg/mL; in the experiment on Staphylococcus aureus [2] it was ≥ 64 µg/mL.

`N#CC(C#N)Cc1cccc(Oc2ccc(Cl)c(Cl)c2)c1`: the minimum inhibitory concentration (MIC) in the experiment with Staphylococcus aureus [1] was 64 µg/mL; in the experiment with Staphylococcus aureus [2] it was 32 µg/mL (≈ 101 µM).

For the molecule `N#CC(C#N)=Cc1cccc(Oc2ccc(Cl)cc2)c1`, the values for the MIC with Staphylococcus aureus [1] and against Staphylococcus aureus [2] were 64 µg/mL and 32 µg/mL (≈ 114 µM), respectively.

Take `N#C/C(=C\c1cccc(Oc2ccc(Cl)c(Cl)c2)c1)c1cccs1`: the minimal inhibitory concentration (MIC) in the experiment with Staphylococcus aureus [1] is 64 µg/mL; against Staphylococcus aureus [2] it was ≥ 64 µg/mL.

Take `N#CC(C#N)=Cc1cc(Cc2ccc(Cl)c(Cl)c2)ccc1F`: the results for the MIC in the experiment on Staphylococcus aureus [1] and in the experiment on Staphylococcus aureus [2] were 4 µg/mL and 8 µg/mL (≈ 24.2 µM), respectively.

Consider `COc1ccc(Cc2ccc(F)c(/C=C(\C#N)S(C)(=O)=O)c2)cc1C(F)(F)F`, for which the figures for the MIC in the experiment with Staphylococcus aureus [1] and against Staphylococcus aureus [2] were 64 µg/mL and ≥ 64 µg/mL, respectively.

For `COc1ccc(OC)c(Cc2cccc(C=C(C#N)C#N)c2)c1`, the MIC in the experiment with Staphylococcus aureus [1] was 64 µg/mL; in the experiment on Staphylococcus aureus [2], ≥ 64 µg/mL.
